Results published in the NIST ThermoML archive (doi:10.1021/je600573w).
± gives the expanded uncertainty stated by the source.

Experiments:
[1] = molar heat capacity at constant pressure; settings: 101.33 kPa, Liquid, Small sample (50 mg) DSC
[2] = 101.33 kPa, Liquid, Vibrating tube method

Clc1ccccc1 [chlorobenzene]
Settings | mass density [kg/m3] | molar heat capacity at constant pressure [J/K/mol]
[1], 283.15 K | – | 147.73 ± 2.3
[1], 285.15 K | – | 148.14 ± 2.3
[1], 287.15 K | – | 148.56 ± 2.3
[1], 289.15 K | – | 148.99 ± 2.3
[1], 291.15 K | – | 149.41 ± 2.3
[1], 293.15 K | – | 149.85 ± 2.3
[1], 295.15 K | – | 150.29 ± 2.3
[1], 297.15 K | – | 150.73 ± 2.3
[1], 299.15 K | – | 151.18 ± 2.3
[1], 301.15 K | – | 151.64 ± 2.4
[1], 303.15 K | – | 152.1 ± 2.4
[1], 305.15 K | – | 152.56 ± 2.4
[1], 307.15 K | – | 153.03 ± 2.4
[1], 309.15 K | – | 153.5 ± 2.4
[1], 311.15 K | – | 153.97 ± 2.4
[1], 313.15 K | – | 154.45 ± 2.4
[1], 315.15 K | – | 154.93 ± 2.4
[1], 317.15 K | – | 155.41 ± 2.4
[1], 319.15 K | – | 155.9 ± 2.4
[1], 321.15 K | – | 156.39 ± 2.4
[1], 323.15 K | – | 156.88 ± 2.4
[1], 325.15 K | – | 157.37 ± 2.4
[1], 327.15 K | – | 157.86 ± 2.5
[1], 329.15 K | – | 158.36 ± 2.5
[1], 331.15 K | – | 158.86 ± 2.5
[1], 333.15 K | – | 159.35 ± 2.5
[1], 335.15 K | – | 159.85 ± 2.5
[1], 337.15 K | – | 160.35 ± 2.5
[1], 339.15 K | – | 160.85 ± 2.5
[1], 341.15 K | – | 161.35 ± 2.5
[1], 343.15 K | – | 161.85 ± 2.5
[1], 345.15 K | – | 162.35 ± 2.5
[1], 347.15 K | – | 162.85 ± 2.5
[1], 349.15 K | – | 163.34 ± 2.5
[1], 351.15 K | – | 163.84 ± 2.5
[1], 353.15 K | – | 164.34 ± 2.5
[2], 288.15 K | 1111.9 ± 0.42 | –
[2], 298.15 K | 1101.14 ± 0.4 | –
[2], 308.15 K | 1090.34 ± 0.39 | –
[2], 318.15 K | 1079.48 ± 0.38 | –
[2], 328.15 K | 1068.57 ± 0.37 | –
[2], 338.15 K | 1057.58 ± 0.36 | –

Brc1ccccc1 [bromobenzene]
Settings | mass density [kg/m3] | molar heat capacity at constant pressure [J/K/mol]
[1], 283.15 K | – | 151.63 ± 2.4
[1], 285.15 K | – | 151.99 ± 2.4
[1], 287.15 K | – | 152.37 ± 2.4
[1], 289.15 K | – | 152.75 ± 2.4
[1], 291.15 K | – | 153.14 ± 2.4
[1], 293.15 K | – | 153.54 ± 2.4
[1], 295.15 K | – | 153.94 ± 2.4
[1], 297.15 K | – | 154.35 ± 2.4
[1], 299.15 K | – | 154.77 ± 2.4
[1], 301.15 K | – | 155.19 ± 2.4
[1], 303.15 K | – | 155.62 ± 2.4
[1], 305.15 K | – | 156.05 ± 2.4
[1], 307.15 K | – | 156.49 ± 2.4
[1], 309.15 K | – | 156.93 ± 2.4
[1], 311.15 K | – | 157.38 ± 2.4
[1], 313.15 K | – | 157.83 ± 2.5
[1], 315.15 K | – | 158.28 ± 2.5
[1], 317.15 K | – | 158.74 ± 2.5
[1], 319.15 K | – | 159.2 ± 2.5
[1], 321.15 K | – | 159.66 ± 2.5
[1], 323.15 K | – | 160.13 ± 2.5
[1], 325.15 K | – | 160.6 ± 2.5
[1], 327.15 K | – | 161.06 ± 2.5
[1], 329.15 K | – | 161.53 ± 2.5
[1], 331.15 K | – | 162 ± 2.5
[1], 333.15 K | – | 162.48 ± 2.5
[1], 335.15 K | – | 162.95 ± 2.5
[1], 337.15 K | – | 163.42 ± 2.5
[1], 339.15 K | – | 163.89 ± 2.5
[1], 341.15 K | – | 164.36 ± 2.5
[1], 343.15 K | – | 164.83 ± 2.5
[1], 345.15 K | – | 165.3 ± 2.6
[1], 347.15 K | – | 165.76 ± 2.6
[1], 349.15 K | – | 166.23 ± 2.6
[1], 351.15 K | – | 166.69 ± 2.6
[1], 353.15 K | – | 167.15 ± 2.6
[2], 288.15 K | 1501.95 ± 0.88 | –
[2], 298.15 K | 1488.45 ± 0.86 | –
[2], 308.15 K | 1474.94 ± 0.84 | –
[2], 318.15 K | 1461.39 ± 0.83 | –
[2], 328.15 K | 1447.8 ± 0.8 | –
[2], 338.15 K | 1434.15 ± 0.79 | –

Clc1ccc(Cl)c(Cl)c1 [1,2,4-trichlorobenzene]
Settings | mass density [kg/m3] | molar heat capacity at constant pressure [J/K/mol]
[1], 293.15 K | – | 194.25 ± 3
[1], 295.15 K | – | 194.57 ± 3
[1], 297.15 K | – | 194.9 ± 3
[1], 299.15 K | – | 195.23 ± 3
[1], 301.15 K | – | 195.57 ± 3
[1], 303.15 K | – | 195.92 ± 3
[1], 305.15 K | – | 196.27 ± 3
[1], 307.15 K | – | 196.63 ± 3
[1], 309.15 K | – | 196.99 ± 3
[1], 311.15 K | – | 197.35 ± 3.1
[1], 313.15 K | – | 197.72 ± 3.1
[1], 315.15 K | – | 198.09 ± 3.1
[1], 317.15 K | – | 198.47 ± 3.1
[1], 319.15 K | – | 198.85 ± 3.1
[1], 321.15 K | – | 199.23 ± 3.1
[1], 323.15 K | – | 199.61 ± 3.1
[1], 325.15 K | – | 200 ± 3.1
[1], 327.15 K | – | 200.38 ± 3.1
[1], 329.15 K | – | 200.77 ± 3.1
[1], 331.15 K | – | 201.16 ± 3.1
[1], 333.15 K | – | 201.55 ± 3.1
[1], 335.15 K | – | 201.93 ± 3.1
[1], 337.15 K | – | 202.32 ± 3.1
[1], 339.15 K | – | 202.71 ± 3.1
[1], 341.15 K | – | 203.09 ± 3.1
[1], 343.15 K | – | 203.47 ± 3.1
[1], 345.15 K | – | 203.85 ± 3.2
[1], 347.15 K | – | 204.23 ± 3.2
[1], 349.15 K | – | 204.61 ± 3.2
[1], 351.15 K | – | 204.98 ± 3.2
[1], 353.15 K | – | 205.35 ± 3.2
[2], 288.15 K | 1460.65 ± 0.82 | –
[2], 298.15 K | 1448.67 ± 0.81 | –
[2], 308.15 K | 1436.73 ± 0.79 | –
[2], 318.15 K | 1424.8 ± 0.8 | –
[2], 328.15 K | 1412.89 ± 0.76 | –
[2], 338.15 K | 1400.98 ± 0.75 | –

Brc1cccc(Br)c1 [1,3-dibromobenzene]
Settings | mass density [kg/m3] | molar heat capacity at constant pressure [J/K/mol]
[1], 283.15 K | – | 176.01 ± 2.7
[1], 285.15 K | – | 176.4 ± 2.7
[1], 287.15 K | – | 176.71 ± 2.7
[1], 289.15 K | – | 177.04 ± 2.7
[1], 291.15 K | – | 177.38 ± 2.8
[1], 293.15 K | – | 177.72 ± 2.8
[1], 295.15 K | – | 178.08 ± 2.8
[1], 297.15 K | – | 178.44 ± 2.8
[1], 299.15 K | – | 178.81 ± 2.8
[1], 301.15 K | – | 179.19 ± 2.8
[1], 303.15 K | – | 179.58 ± 2.8
[1], 305.15 K | – | 179.97 ± 2.8
[1], 307.15 K | – | 180.37 ± 2.8
[1], 309.15 K | – | 180.78 ± 2.8
[1], 311.15 K | – | 181.19 ± 2.8
[1], 313.15 K | – | 181.6 ± 2.8
[1], 315.15 K | – | 182.01 ± 2.8
[1], 317.15 K | – | 182.43 ± 2.8
[1], 319.15 K | – | 182.85 ± 2.8
[1], 321.15 K | – | 183.28 ± 2.8
[1], 323.15 K | – | 183.7 ± 2.9
[1], 325.15 K | – | 184.13 ± 2.9
[1], 327.15 K | – | 184.55 ± 2.9
[1], 329.15 K | – | 184.98 ± 2.9
[1], 331.15 K | – | 185.4 ± 2.9
[1], 333.15 K | – | 185.83 ± 2.9
[1], 335.15 K | – | 186.25 ± 2.9
[1], 337.15 K | – | 186.67 ± 2.9
[1], 339.15 K | – | 187.08 ± 2.9
[1], 341.15 K | – | 187.49 ± 2.9
[1], 343.15 K | – | 187.9 ± 2.9
[1], 345.15 K | – | 188.3 ± 2.9
[1], 347.15 K | – | 188.7 ± 2.9
[1], 349.15 K | – | 189.09 ± 2.9
[1], 351.15 K | – | 189.47 ± 2.9
[1], 353.15 K | – | 189.85 ± 2.9
[2], 288.15 K | 1964.14 ± 1.5 | –
[2], 298.15 K | 1948.87 ± 1.5 | –
[2], 308.15 K | 1933.61 ± 1.5 | –
[2], 318.15 K | 1918.3 ± 1.4 | –
[2], 328.15 K | 1903.13 ± 1.4 | –
[2], 338.15 K | 1887.88 ± 1.4 | –
